Marks after values point to notes of the source that are not given here.
Key:
[1] = system: carrageenan-induced paw edema; assay: Carrageenan-induced rat-paw-edema assay; type: in vivo, rats; settings: for Potency (%): calculated compared to the reference drug naproxen; for Edema (%): compounds 5 mg/kg orally, naproxen 2.5 mg/kg orally, in DMSO, mean ± SE of six rats
[2] = system: tail-withdrawal latency; assay: Tail-flick latency test; type: in vivo, rats; settings: for Latency (seconds) / Latency: compounds 5 mg/kg orally, naproxen 2.5 mg/kg orally, in DMSO, mean ± SE of six rats; for Potency (%): analgesic potency after 120 minutes compared with the reference drug naproxen
[3] = system: gastric ulceration; settings: naproxen 2.5 mg/kg orally, tested compounds 5 mg/g orally in DMSO
[4] = system: tumor-bearing rats; settings: cited from earlier work
[5] = after 1 hour of induced inflammation
[6] = throughout the entire experiment

Row | SMILES | Potency (%) ([1]; 1 hour) | Edema (%) ([1]; 1 hour) | Potency (%) ([1]; 2 hours) | Edema (%) ([1]; 2 hours) | Potency (%) ([1]; 3 hours) | Edema (%) ([1]; 3 hours) | Potency (%) ([1]; 4 hours) | Edema (%) ([1]; 4 hours) | Latency (seconds) ([2]; 30 minutes) | Latency (seconds) ([2]; 60 minutes) | Latency (seconds) ([2]; 120 minutes) | Potency (%) [2] [%] | anti-inflammatory activity (in words) [1, 5] | anti-inflammatory potency relative to the reference drug ([1]; compared to naproxen) | anti-inflammatory activity relative to naproxen ([1]; entire experiment, after 4 hours) [times] | anti-inflammatory activity (in words) [1, 6] | Latency ([2]; 30 minutes) [s] | anti-inflammatory potency (in words) ([1]; after 2, 3, and 4 hours of induced inflammation, compared to the reference drug) | ulcerogenic effect, macroscopic examination of the stomach [3] | reduction of rate of tumor growth [4] [%]
1 | COC(=O)CCNC(=S)NC(=O)C(C)c1ccc2cc(OC)ccc2c1 (centres unmarked) [Compound 10, Methyl 3-(3-(2-(6-methoxynaphthalen-2-yl)propanoyl)thioureido)propanoate] | 6.3 | 30.7±2.38 | 9.8 | 42.6±2.45 | 10.4 | 46.4±2.61 | 15.9 | 44.9±3.34 | 3.1±0.3^b seconds | 4.6±0.4^b seconds | 5.7±0.2^a,b seconds | 81.4 |  |  |  |  |  |  |  | 
2 | COc1ccc2cc(C(C)C(=O)NC(=S)NC(Cc3ccc(O)cc3)C(=O)O)ccc2c1 (centres unmarked) [Compound 8, 3-(4-hydroxyphenyl)-2-(3-(2-(6-methoxynaphthalen-2-yl)propanoyl)thioureido)propanoic acid] | 138.4 | 17.6±1.55 | 111.4 | 19.9±1.50 | 129.2 | 21.5±1.42 | 131.2 | 20.0±2.02 | 5.0±0.2^a seconds | 4.9±0.3^a,b seconds | 5.9±0.5^a seconds | 84.3 | highest anti-inflammatory activity | about 1.4 times | 1.3 | highest anti-inflammatory activity |  |  |  | 
3 | COc1ccc2cc(C(C)C(=O)NC(=S)NCCC(=O)NN)ccc2c1 (centres unmarked) [Compound 14, N-(3-hydrazinyl-3-oxopropylcarbamothioyl)-2-(6-methoxynaphthalen-2-yl)propanamide] | 40.3 | 27.3±0.88 | 32.9 | 37.4±3.58 | 44.9 | 39.2±2.42 | 26.5 | 42.6±1.61 | 6.1±0.4^a seconds | 5.6±0.2^a seconds | 5.7±0.3^a,b seconds | 81.4 |  |  |  | lowest anti-inflammatory potency | 6.1 ± 0.4 |  |  | 
4 | COc1ccc2cc(C(C)C(=O)NC(=S)NC(C)C(=O)O)ccc2c1 (centres unmarked) [Compound 5, 2-(3-(2-(6-methoxynaphthalen-2-yl)propanoyl)thioureido)propanoic acid] | 102.5 | 21.2±1.66 | 64.6 | 30.4±1.19 | 71.1 | 33.7±1.68 | 71.7 | 32.8±1.40 | 3.9±0.3^b seconds | 3.9±0.4^b seconds | 3.9±0.2^b seconds | 55.7 | highest anti-inflammatory activity |  |  |  |  |  |  | 
5 | COC(=O)C(CO)NC(=S)NC(=O)C(C)c1ccc2cc(OC)ccc2c1 (centres unmarked) [Compound 11, Methyl 3-hydroxy-2-(3-(2-(6-methoxynaphthalen-2-yl)propanoyl)thioureido)propanoate] | 66.7 | 24.7±1.79 | 62.2 | 30.9±2.05 | 32.5 | 41.8±2.81 | 32.1 | 41.4±2.59 | 4.8±0.5^a seconds | 4.8±0.4^b seconds | 4.8±0.2^a,b seconds | 68.6 | moderate potency |  |  |  |  |  |  | 
6 | COc1ccc2cc(C(C)C(=O)NC(=S)NC(CO)C(=O)NN)ccc2c1 (centres unmarked) [Compound 15, N-(1-hydrazinyl-3-hydroxy–1-oxopropan-2-yl-carbamothioyl)-2-(6-methoxynaphthalen-2-yl)propanamide] | 120.0 | 19.5±0.50 | 96.8 | 23.2±2.05 | 88.2 | 30.1±2.58 | 80.5 | 31.0±1.68 |  | 3.9±0.2^b seconds | 4.5±0.3^b seconds | 64.3 | highest anti-inflammatory activity |  |  |  | 4.2 ± 0.4 | moderate potency |  | 
7 | COc1ccc2cc(C(C)C(=O)NC(=S)NC(CO)C(=O)O)ccc2c1 (centres unmarked) [Compound 7, 3-hydroxy-2-(3-(2-(6-methoxynaphthalen-2-yl)propanoyl)thioureido)propanoic acid] | 73.9 | 24.0±1.90 | 73.3 | 28.4±0.78 | 89.8 | 29.7±0.95 | 85.2 | 30.0±0.95 | 3.9±0.4^b seconds | 3.6±0.3^b seconds | 4.1±0.2^b seconds | 58.6 | moderate potency |  |  |  |  |  |  | 
8 | COC(=O)C(C)NC(=S)NC(=O)C(C)c1ccc2cc(OC)ccc2c1 (centres unmarked) [Compound 9, Methyl 2-(3-(2-(6-methoxynaphthalen-2-yl)propanoyl)thioureido)propanoate] | 4.7 | 30.8±1.09 | 11.6 | 42.2±3.50 | 21.1 | 44.2±3.94 | 32.3 | 41.3±2.99 | 3.7±0.2^b seconds | 3.8±0.3^b seconds | 4.0±0.3^b seconds | 57.1 |  |  |  |  |  |  |  | 
9 | COc1ccc2cc([C@H](C)C(=O)O)ccc2c1 [Naproxen, reference compound] | 100 | 21.5±2.03 | 100 | 22.5±1.22 | 100 | 27.6±0.85 | 100 | 26.7±1.90 | 5.3±0.3^a seconds | 6.2±0.4^a seconds | 7.0±0.4^a seconds | 100 |  |  |  |  |  |  | moderate gastric ulceration | 58
10 | COc1ccc2cc(C(C)C(=O)NC(=S)NCCC(=O)O)ccc2c1 (centres unmarked) [Compound 6, 3-(3-(2-(6-methoxynaphthalen-2-yl)propanoyl)thioureido)propanoic acid] | 67.6 | 24.6±2.39 | 60.0 | 31.4±2.46 | 64.4 | 35.1±2.99 | 60.3 | 35.3±3.06 |  | 4.0±0.2^b seconds | 4.2±0.3^b seconds | 60.0 | moderate potency |  |  |  | 4.6 ± 0.3 |  |  | 

Source: publication PMC6540076 (Drug Design, Development and Therapy, 2019)
